Data taken from PubChem BioAssay AID2060899 (Molecular Pharmacology Branch, DTP, NCI, 2025).

Tested on: 565726-208-R1-J5-PDC complex spheroids, growth inhibition
Assay: Anticancer human tumor 565726-208-R1-J5-PDC patient-derived pancreatic adenocarcinoma cell line growth inhibition [RAS]
Conditions: for IC50: curve of first compound; for viability, T/C: stronger effect = lower value
Excerpt: RAS pathway inhibitors in Combinations in Complex Spheroids
A high-throughput screen of multi-cell type tumor spheroids was designed to identify active combinations of RAS pathway inhibitors and targeted small molecules. Complex spheroids include a stromal component modeled by human endothelial cells (HUVEC) and fibroblasts modeled by human mesenchymal stem cells (MSCs). The concentration ranges selected for each drug and investigational agent were based upon clinically achievable concentrations if the clinical Cmax of the agent was known.
Compounds. The drugs and investigational agents: abemaciclib (NSC768073), cobimetinib (NSC768068), divarasib (GDC6063, NSC841802), docetaxel (NSC628503), GDC-1971 (RLY-1971, NSC841576), gemcitabine (NSC613327), inavolisib (NSC800729), ipatasertib (NSC767898), KB-0742 (NSC834161), MRTX-1133 (NSC836407), osimertinib (NSC779217), RMC-4630 (NSC839698), RMC-6236 (NSC851965), RMC-6291 (NSC852671), Ro-3306 (NSC812927), sapanisertib (NSC764658), SN-38 (NSC673596), staurosporine (NSC755774), SY5609 (NSC837396), and tovorafenib (DAY101, NSC766906), were obtained from the National Cancer Institute (NCI) Developmental Therapeutics Program Chemical Repository. The FDA-approved anticancer drug set is available from the NCI Developmental Therapeutics Program. […] The stock solutions were prepared in dimethyl sulfoxide (DMSO, Sigma-Aldrich, St. Louis, MO, cat. D2650) at 800-fold the tested concentration and stored at -70 degrees C prior to their use. All drugs and investigational agents were tested over a range starting from a high concentration at or near the clinical Cmax and decreasing in half-log increments. If the clinical Cmax for an agent had not been determined, the highest concentration tested was 10 microM.
Cell Culture. All cells were maintained in an incubator at 37 degrees C and 5% CO2 with 95% humidity. The PDC lines were cultured according to standard operating procedures established by the NCI PDMR. All PDCs were thawed and cultured in Matrigel-coated flasks prepared with a working solution of 1X Ham's F-12 nutrient mix, without supplementation (Invitrogen, Waltham, MA, cat. 11765054), 100 U/mL penicillin-streptomycin (Invitrogen, cat. 15140122), and 2.5% Matrigel (Corning Inc., Corning, NY, cat. 354248) for the first three passages. The 362531-283-R-J2-PDC and 782815-120-R-J1-PDC lines were cultured in 6C/Colon 1B media, which includes advanced DMEM/F-12 (Thermo Fisher Scientific, cat. 12634028), 10 mM HEPES (Thermo Fisher Scientific, cat. 15630080), 1X GlutaMAX supplement (Thermo Fisher Scientific, cat. 35050061), 0.1 mg/mL primocin (InvivoGen, San Diego, CA, cat. ant-pm-2), 10% defined fetal bovine serum, heat inactivated (HyClone Laboratories Inc., Logan, UT, cat. SH30070.03HI), 50% L-WRN conditioned media (ATCC, cat. CRL-3276), 1.25 mM N-Acetyl-L-cysteine (Sigma-Aldrich, cat. A9165), 10 mM nicotinamide (Sigma-Aldrich, cat. N0636), 1X B-27 supplement (Thermo Fisher Scientific, cat. 17504044), 1X N-2 supplement (Thermo Fisher Scientific, cat. 17502048), 50 ng/mL human EGF (Thermo Fisher Scientific, cat. PHG0311), and 10 microM Y-27632 dihydrochloride (Tocris Bioscience, cat. 1254). The K12877-001-R-J1-PDC line was cultured in 6I media, which includes all 6C/Colon 1B media plus 10 ng/mL human FGF-10 (PeproTech, cat. 100-26), 1 ng/mL human FGF-2 (PeproTech, cat. 100-18B), 1 µM prostaglandin E2 (Tocris Bioscience, cat. 2296), […] hydrocortisone (Sigma-Aldrich, cat. H4001), and […] bovine insulin (Sigma-Aldrich, cat. I6634). The K86415-001-R-J1-PDC line was cultured in 6D media, which includes all 6C/Colon 1B media components minus the L-WRN conditioned media. The 485176-168-R4-J1-PDC was cultured in PANC media, which includes all 6C/Colon 1B media plus 100 ng/mL human FGF-10 (PeproTech, cat. 100-26), 500 nM SB-431542 (Selleckchem, cat. S1067), and 10 nM gastrin (Tocris Bioscience, cat. 3006). […]
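Note: spheroids exposed to compounds for seven days before readout.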
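Throughout, for viability, T/C: 100% = DMSO vehicle control viability.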

For `CC(Nc1ccc2c(c1)OCCn1cc(N3C(=O)OCC3C(F)F)nc1-2)C(N)=O` (centres undefined) + C#Cc1c(F)ccc2cc(O)cc(-c3ncc4c(N5CC6CCC(C5)N6)nc(OCC56CCCN5CC(F)C6)nc4c3F)c12, the IC50 (second compound 0.0316 µM) was > 10000 nM, the IC50 (second compound 0.1 µM) was > 10000 nM and the IC50 (second compound 0.316 µM) was > 10000 nM. For the same compound, the IC50 (second compound 1 µM) was > 10000 nM, the IC50 (second compound 3.16 µM) was 487 nM and the IC50 (second compound 10 µM) was 527 nM. The viability, T/C (second compound 0.0316 µM, first compound 0.0316 µM) was 73.2%, the viability, T/C (second compound 0.0316 µM, first compound 0.1 µM) was 101% and the viability, T/C (second compound 0.0316 µM, first compound 0.316 µM) was 86.5%. The viability, T/C (second compound 0.0316 µM, first compound 1 µM) was 60.4%, the viability, T/C (second compound 0.0316 µM, first compound 3.16 µM) was 92.9% and the viability, T/C (second compound 0.0316 µM, first compound 10 µM) was 70.2%. It also gave a viability, T/C (second compound 0.1 µM, first compound 0.0316 µM) of 87.5%, a viability, T/C (second compound 0.1 µM, first compound 0.1 µM) of 102% and a viability, T/C (second compound 0.1 µM, first compound 0.316 µM) of 73.9%. The viability, T/C (second compound 0.1 µM, first compound 1 µM) was 53.5%, the viability, T/C (second compound 0.1 µM, first compound 3.16 µM) was 81.2% and the viability, T/C (second compound 0.1 µM, first compound 10 µM) was 65.5%. For the same compound, the viability, T/C (second compound 0.316 µM, first compound 0.0316 µM) was 105%, the viability, T/C (second compound 0.316 µM, first compound 0.1 µM) was 109% and the viability, T/C (second compound 0.316 µM, first compound 0.316 µM) was 72.9%. The viability, T/C (second compound 0.316 µM, first compound 1 µM) was 55.1%, the viability, T/C (second compound 0.316 µM, first compound 3.16 µM) was 69.2% and the viability, T/C (second compound 0.316 µM, first compound 10 µM) was 62.5%. The viability, T/C (second compound 1 µM, first compound 0.0316 µM) was 114%, the viability, T/C (second compound 1 µM, first compound 0.1 µM) was 102% and the viability, T/C (second compound 1 µM, first compound 0.316 µM) was 57.2%. For the same compound, the viability, T/C (second compound 1 µM, first compound 1 µM) was 60.2%, the viability, T/C (second compound 1 µM, first compound 3.16 µM) was 47.4% and the viability, T/C (second compound 1 µM, first compound 10 µM) was 54.6%. For the same compound, the viability, T/C (second compound 3.16 µM, first compound 0.0316 µM) was 90.5%, the viability, T/C (second compound 3.16 µM, first compound 0.1 µM) was 80% and the viability, T/C (second compound 3.16 µM, first compound 0.316 µM) was 56.4%. The viability, T/C (second compound 3.16 µM, first compound 1 µM) was 38.7%, the viability, T/C (second compound 3.16 µM, first compound 3.16 µM) was 35.6% and the viability, T/C (second compound 3.16 µM, first compound 10 µM) was 45.3%. For the same compound, the viability, T/C (second compound 10 µM, first compound 0.0316 µM) was 60.8%, the viability, T/C (second compound 10 µM, first compound 0.1 µM) was 68.9% and the viability, T/C (second compound 10 µM, first compound 0.316 µM) was 51.1%. The viability, T/C (second compound 10 µM, first compound 1 µM) was 46.7%, the viability, T/C (second compound 10 µM, first compound 3.16 µM) was 30.7% and the viability, T/C (second compound 10 µM, first compound 10 µM) was 34.7%.
In the case of `CCN1CCN(Cc2ccc(Nc3ncc(F)c(-c4cc(F)c5nc(C)n(C(C)C)c5c4)n3)nc2)CC1` + CCn1c(-c2cc(N3CCN(C)CC3)cnc2C(C)OC)c2c3cc(ccc31)-c1csc(n1)CC(NC(=O)C1CC1C)C(=O)N1CCCC(N1)C(=O)OCC(C)(C)C2, the IC50 (second compound 0.000949 µM) is reported as 72.8 nM, the IC50 (second compound 0.003 µM) is reported as < 3.16 nM and the IC50 (second compound 0.00949 µM) is reported as < 3.16 nM. For the same compound, the IC50 (second compound 0.03 µM) was < 3.16 nM, the IC50 (second compound 0.0949 µM) was < 3.16 nM and the IC50 (second compound 0.3 µM) was < 3.16 nM. For the same compound, the viability, T/C (second compound 0.000949 µM, first compound 0.00316 µM) was 57.7%, the viability, T/C (second compound 0.000949 µM, first compound 0.01 µM) was 57.9% and the viability, T/C (second compound 0.000949 µM, first compound 0.0316 µM) was 57%. It also gave a viability, T/C (second compound 0.000949 µM, first compound 0.1 µM) of 47.2%, a viability, T/C (second compound 0.000949 µM, first compound 0.316 µM) of 35.4% and a viability, T/C (second compound 0.000949 µM, first compound 1 µM) of 31.6%. The viability, T/C (second compound 0.003 µM, first compound 0.00316 µM) was 51.7%, the viability, T/C (second compound 0.003 µM, first compound 0.01 µM) was 41.4% and the viability, T/C (second compound 0.003 µM, first compound 0.0316 µM) was 51.7%. The viability, T/C (second compound 0.003 µM, first compound 0.1 µM) was 35.5%, the viability, T/C (second compound 0.003 µM, first compound 0.316 µM) was 35% and the viability, T/C (second compound 0.003 µM, first compound 1 µM) was 23.9%. For the same compound, the viability, T/C (second compound 0.00949 µM, first compound 0.00316 µM) was 41.4%, the viability, T/C (second compound 0.00949 µM, first compound 0.01 µM) was 41.4% and the viability, T/C (second compound 0.00949 µM, first compound 0.0316 µM) was 31.1%. For the same compound, the viability, T/C (second compound 0.00949 µM, first compound 0.1 µM) was 32.4%, the viability, T/C (second compound 0.00949 µM, first compound 0.316 µM) was 22.3% and the viability, T/C (second compound 0.00949 µM, first compound 1 µM) was 18.8%. The viability, T/C (second compound 0.03 µM, first compound 0.00316 µM) was 33.2%, the viability, T/C (second compound 0.03 µM, first compound 0.01 µM) was 29.2% and the viability, T/C (second compound 0.03 µM, first compound 0.0316 µM) was 28.4%. For the same compound, the viability, T/C (second compound 0.03 µM, first compound 0.1 µM) was 25.5%, the viability, T/C (second compound 0.03 µM, first compound 0.316 µM) was 22.7% and the viability, T/C (second compound 0.03 µM, first compound 1 µM) was 18.8%. It also gave a viability, T/C (second compound 0.0949 µM, first compound 0.00316 µM) of 25.1%, a viability, T/C (second compound 0.0949 µM, first compound 0.01 µM) of 23.8% and a viability, T/C (second compound 0.0949 µM, first compound 0.0316 µM) of 22%. The viability, T/C (second compound 0.0949 µM, first compound 0.1 µM) was 21.1%, the viability, T/C (second compound 0.0949 µM, first compound 0.316 µM) was 19.4% and the viability, T/C (second compound 0.0949 µM, first compound 1 µM) was 15.7%. It also gave a viability, T/C (second compound 0.3 µM, first compound 0.00316 µM) of 24.1%, a viability, T/C (second compound 0.3 µM, first compound 0.01 µM) of 23.3% and a viability, T/C (second compound 0.3 µM, first compound 0.0316 µM) of 20.1%. It also gave a viability, T/C (second compound 0.3 µM, first compound 0.1 µM) of 18.8%, a viability, T/C (second compound 0.3 µM, first compound 0.316 µM) of 18% and a viability, T/C (second compound 0.3 µM, first compound 1 µM) of 15.6%.
